Drawing on ChEMBL document CHEMBL2010767, “Agonists for the Chemokine Receptor CXCR4” (ACS Med Chem Lett, 2011), this text covers IC50 and Activity for 3 compounds.

Experiment [1] addresses T1, C-X-C chemokine receptor type 4 (Homo sapiens, UniProt P61073). Put plainly: Displacement of [125I]-SDF-1alpha from human CXCR4 receptor expressed in HEK293 cells after 1 hr by gamma counting. Type of experiment: cell-based. Background: Loss of bound radioactivity is the signal in a displacement assay; it reports binding, not function.
Experiment [2] has as its target T1, C-X-C chemokine receptor type 4. Put plainly: Agonist activity at CXCR4 receptor in human REH cells assessed as induction of chemotactic migration at 1 uM after 3 hrs. The format is functional, cell-based.
Experiment [3] shares this target. Put plainly: Agonist activity at CXCR4 receptor in human REH cells assessed as induction of chemotactic migration at 10 to 100 nM after 3 hrs. The format is functional, cell-based.
Experiment [4] shares this target. Put plainly: Antagonist activity at CXCR4 receptor in human REH cells assessed as inhibition of SDF-1alpha-induced chemotactic migration after 3 hrs. The format is functional, cell-based.

Calls of active or inactive are those of the source. No cut-off for these calls is given here.

T1 sequence (P61073 whole entry): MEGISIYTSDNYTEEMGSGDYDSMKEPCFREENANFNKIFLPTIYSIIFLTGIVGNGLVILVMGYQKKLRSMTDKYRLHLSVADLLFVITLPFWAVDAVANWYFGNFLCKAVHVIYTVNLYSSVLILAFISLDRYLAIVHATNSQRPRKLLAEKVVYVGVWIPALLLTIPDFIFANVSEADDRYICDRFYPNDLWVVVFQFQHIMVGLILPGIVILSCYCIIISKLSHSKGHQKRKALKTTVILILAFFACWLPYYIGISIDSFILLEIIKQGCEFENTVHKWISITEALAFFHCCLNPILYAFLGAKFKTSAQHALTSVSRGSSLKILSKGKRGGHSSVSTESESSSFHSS

`CC(C)C[C@H](NC(=O)[C@H](CO)NC(=O)[C@@H](NC(=O)[C@@H]1CCCN1C(=O)[C@@H](N)CCCCN)C(C)C)C(=O)N[C@@H](CO)C(=O)N[C@@H](Cc1ccc(O)cc1)C(=O)NCCCC[C@@H](NC(=O)[C@@H]1CSSC[C@H](NC(=O)[C@H](Cc2ccc3ccccc3c2)NC(=O)[C@H](CCCNC(=N)N)NC(=O)[C@@H](N)CCCNC(=N)N)C(=O)N[C@@H](Cc2ccc(O)cc2)C(=O)N[C@@H](CCCNC(=N)N)C(=O)N[C@@H](CCCCN)C(=O)N[C@H](CCCCN)C(=O)N2CCC[C@H]2C(=O)N[C@@H](Cc2ccc(O)cc2)C(=O)N[C@@H](CCCNC(=N)N)C(=O)N[C@@H](CCCNC(N)=O)C(=O)C1)C(=O)O`: the IC50 (as a rule, the concentration at which inhibition is half-maximal) in experiment [1] (hek293) came to 170 nM. Also, the outcome in experiment [2] was Active.
Regarding `CC(C)C[C@H](NC(=O)[C@H](CO)NC(=O)[C@@H](NC(=O)[C@@H]1CCCN1C(=O)[C@@H](N)CCCCN)C(C)C)C(=O)N[C@@H](CO)C(=O)N[C@@H](Cc1ccc(O)cc1)C(=O)N[C@@H](CCCNC(=N)N)C(=O)N[C@@H](CO)C(=O)N1CCC[C@H]1C(=O)NCCCC[C@H](NC(=O)[C@@H]1CSSC[C@H](NC(=O)[C@H](Cc2ccc3ccccc3c2)NC(=O)[C@H](CCCNC(=N)N)NC(=O)[C@@H](N)CCCNC(=N)N)C(=O)N[C@@H](Cc2ccc(O)cc2)C(=O)N[C@@H](CCCNC(=N)N)C(=O)N[C@@H](CCCCN)C(=O)N[C@H](CCCCN)C(=O)N2CCC[C@H]2C(=O)N[C@@H](Cc2ccc(O)cc2)C(=O)N[C@@H](CCCNC(=N)N)C(=O)N[C@@H](CCCNC(=N)N)C(=O)C1)C(=O)O`, the outcome in experiment [3] was Active. The compound also came in with an IC50 in experiment [1] of 9.57 nM.
With `CC(C)C[C@H](NC(=O)[C@H](CO)NC(=O)[C@@H](NC(=O)[C@@H]1CCCN1C(=O)[C@@H](N)CCCCN)C(C)C)C(=O)N[C@@H](CO)C(=O)N[C@@H](Cc1ccc(O)cc1)C(=O)NCCCC[C@@H]1NC(=O)[C@H](CCCNC(=N)N)NC(=O)[C@H](Cc2ccc(O)cc2)NC(=O)[C@@H]2CCCN2C(=O)[C@@H](CCCCN)NC(=O)[C@H](CCCCN)NC(=O)[C@H](CCCNC(=N)N)NC(=O)[C@H](Cc2ccc(O)cc2)NC(=O)[C@@H](NC(=O)[C@H](Cc2ccc3ccccc3c2)NC(=O)[C@H](CCCNC(=N)N)NC(=O)[C@@H](N)CCCNC(=N)N)CSSC[C@@H](C(=O)N[C@@H](CCCNC(=N)N)C(=O)O)CC1=O`, the IC50 in experiment [1] was 2.22 nM. In experiment [4], the outcome was Active.
